# Read-outs that look alike come from different tables or passages of the source.
# How the values were obtained:
# [1] = test system: Myzus persicae; assay: Myzus persicae test (Example C), sprayed cabbage leaves; type: in vivo
# [2] = test system: Nilaparvata lugens; assay: Nilaparvata lugens test (Example D), sprayed rice plants; type: in vivo; settings: 0.8 g/ha, alone
# [3] = test system: Bemisia tabaci; assay: Bemisia tabaci test (Example B), sprayed cotton leaves, larval stages; type: in vivo; settings: 4 g/ha, alone
# [4] = test system: Tetranychus urticae; assay: Tetranychus urticae test (OP-resistant/spray treatment) (Example G), bean leaf disks; type: in vivo
# Procedure: Tetranychus urticae Test (OP-Resistant/Spray Treatment)
# After the desired period of time, the activity in % is determined.
# [5] = test system: Phaedon cochleariae; assay: Phaedon cochleariae larvae test (Example E), sprayed cabbage leaves; settings: for Kill in % after 6d / Kill in % after 2d: alone
# [6] = test system: Spodoptera frugiperda; assay: Spodoptera frugiperda larvae test (Example F), sprayed cabbage leaves; type: in vivo
# Excerpt: Spodoptera frugiperda Larvae Test
# [7] = test system: Aphis gossypii; assay: Aphis gossypii test (Example A), sprayed cotton leaves; type: in vivo; settings: 0.16 ppm, alone
# [8] = Phaedon cochleariae, in Brassica oleracea, 144 h, read-out: Kill in % after 6d
# [9] = Spodoptera frugiperda, 144 h, alone, after 6 d, read-out: Kill in % after 6d
# [10] = Myzus persicae, 144 h, 4 g/ha, alone, after 6 d, read-out: Kill in % after 6d
# [11] = Tetranychus urticae, foliar, 144 h, active compound alone, 20 g/ha, after 6 d, read-out: Kill in % after 6 d
# [12] = Spodoptera frugiperda, 144 h, 0.8 g/ha, alone, after 6 d, read-out: Kill in % after 6d
# [13] = Tetranychus urticae, foliar, 144 h, active compound alone, 4 g/ha, after 6 d, read-out: Kill in % after 6 d
# [14] = Myzus persicae, 144 h, alone, after 6 d, read-out: Kill in % after 6d
compound,measurement,setting,value
"CC(C)N1C(=O)N(c2ccccc2)CS/C1=N\C(C)(C)C [buprofezin (42), buprofezin]",Kill in % after 1d,"[1]; 4 g/ha, alone, after 1 d",0%
same,Kill in % after 6d,[2],10%
same,Kill in % after 10d,[3],30%
same,Kill in % after 2d,"[4]; 100 g/ha, alone, after 2 d",0%
same,pest or weed control at 100 g/ha,[5]; [8],0%
"CC1(C)C(/C=C(\Cl)C(F)(F)F)C1C(=O)OC(C#N)c1cccc(Oc2ccccc2)c1 [L-cyhalothrin (12a), lambda-cyhalothrin]",pest or weed control at 0.032 g/ha,"[1]; Myzus persicae, 144 h, 0.032 g/ha, alone, after 6 d, read-out: Kill in % after 6d",0%
same,pest or weed control at 4 g/ha,[6]; [9],50%
same,pest or weed control at 0.16 g/ha,[5]; [8],0%
"Cc1cc(C(F)(C(F)(F)F)C(F)(F)F)ccc1NC(=O)c1cccc(I)c1C(=O)NC(C)(C)CS(C)(=O)=O [flubendiamide (54), flubendiamide]",Kill in % after 6d,"[1]; 0.8 g/ha, alone, after 6 d",0%
same,Kill in % after 6d,"[4]; active compound alone, 20 g/ha, after 6 d",0%
same,Kill in % after 6d,"[6]; 0.8 g/ha, alone, after 6 d",0%
same,Kill in % after 6d,[5]; 20 g/ha,0%
"CC1(C)[C@H](/C=C(\Cl)C(F)(F)F)[C@@H]1C(=O)O[C@H](C#N)c1cccc(Oc2ccccc2)c1 [gamma-cyhalothrin (12b), gamma-cyhalothrin]",Kill in % after 6d,[7],0%
same,Kill in % after 2d,"[6]; 0.032 g/ha, alone",5%
"O=C(NC(=O)c1ccccc1Cl)Nc1ccc(OC(F)(F)F)cc1 [triflumuron (36), triflumuron]",pest or weed control at 4 g/ha,[1]; [10],0%
same,pest or weed control at 20 g/ha,[4]; [11],0%
same,pest or weed control at 0.16 g/ha,"[6]; Spodoptera frugiperda, 144 h, 0.16 g/ha, alone, after 6 d, read-out: Kill in % after 6d",0%
same,Kill in % after 2d,[5]; 20 g/ha,17%
"COP(N)(=O)SC (centres unmarked) [methamidophos (113), methamidophos]",pest or weed control at 4 g/ha,[1]; [10],0%
same,pest or weed control at 20 g/ha,[4]; [11],0%
same,Kill in % after 2d,"[6]; 100 g/ha, alone",67%
same,Kill in % after 2d,[5]; 100 g/ha,0%
"Cc1c(COC(=O)C2C(/C=C(\Cl)C(F)(F)F)C2(C)C)cccc1-c1ccccc1 (centres unmarked) [bifenthrin (18), bifenthrin]",pest or weed control at 0.8 g/ha,[6]; [12],0%
"CCOC(=O)OC1=C(c2cc(C)ccc2C)C(=O)N[C@]12CC[C@@H](OC)CC2 [spirotetramat (98), spirotetramat]",pest or weed control at 4 g/ha,[4]; [13],50%
same,pest or weed control at 20 g/ha,"[6]; Spodoptera frugiperda, 144 h, 20 g/ha, alone, after 6 d, read-out: Kill in % after 6d",0%
same,pest or weed control at 20 g/ha,[5]; [8],50%
spinosad [spinosad (79)],Kill in % after 6d,"[1]; 0.8 g/ha, alone, after 6 d",0%
same,Kill in % after 6d,"[4]; active compound alone, 4 g/ha, after 6 d",80%
same,Kill in % after 2d,"[6]; 0.8 g/ha, alone",0%
same,Kill in % after 6d,[5]; 0.8 g/ha,0%
Cc1cc(C(F)(C(F)(F)F)C(F)(F)F)ccc1NC(=O)c1cccc(Cl)c1C(=O)N[C@@H](C)CS(C)(=O)=O [compound (55)],pest or weed control at 0.16 g/ha,[1]; [14],0%
same,pest or weed control at 4 g/ha,[4]; [13],0%
same,pest or weed control at 0.8 g/ha,[6]; [12],50%
same,pest or weed control at 0.8 g/ha,[5]; [8],0%
"CS/C(C)=N/OC(=O)N(C)SN(C)C(=O)O/N=C(\C)SC [thiodicarb (111), thiodicarb]",pest or weed control at 20 g/ha,[4]; [11],0%
same,pest or weed control at 4 g/ha,[6]; [9],67%
same,pest or weed control at 100 g/ha,[5]; [8],0%
"COP(=O)(NC(C)=O)SC (centres unmarked) [acephate (112), acephate]",pest or weed control at 0.8 g/ha,"[1]; Myzus persicae, 144 h, read-out: Kill in % after 6d",0%
same,pest or weed control at 100 g/ha,"[4]; Tetranychus urticae, foliar, 144 h, read-out: Kill in % after 6 d",0%
same,pest or weed control at 20 g/ha,"[6]; Spodoptera frugiperda, 144 h, read-out: Kill in % after 6d",33%
"CC1(C)C(C=C(Cl)Cl)C1C(=O)OC(C#N)c1cccc(Oc2ccccc2)c1 (centres unmarked) [cypermethrin (5), cypermethrin]",pest or weed control at 4 g/ha,[4]; [13],0%
same,pest or weed control at 0.8 g/ha,[6]; [12],17%
same,pest or weed control at 4 g/ha,[5]; [8],67%
"COC(=O)N(C(=O)N1COC2(C(=O)OC)Cc3cc(Cl)ccc3C2=N1)c1ccc(OC(F)(F)F)cc1 (centres unmarked) [indoxacarb (94), indoxacarb]",pest or weed control at 4 g/ha,[1]; [10],0%
same,pest or weed control at 100 g/ha,"[4]; Tetranychus urticae, foliar, 144 h, active compound alone, 100 g/ha, after 6 d, read-out: Kill in % after 6 d",0%
same,pest or weed control at 4 g/ha,[6]; [9],0%
"O=C(NC(=O)c1c(F)cccc1F)Nc1cc(Cl)c(OC(F)(F)C(F)C(F)(F)F)cc1Cl (centres unmarked) [lufenuron (34), lufenuron]",pest or weed control at 0.8 g/ha,"[1]; Myzus persicae, 144 h, 0.8 g/ha, alone, after 6 d, read-out: Kill in % after 6d",0%
same,pest or weed control at 20 g/ha,[4]; [11],0%
same,Kill in % after 2d,"[6]; 100 g/ha, alone",0%
"CC1(C)C(C=C(Cl)Cl)C1C(=O)OC(C#N)c1cccc(Oc2ccccc2)c1 (stereo not drawn) [alpha-cypermethrin (2), alpha-cypermethrin]",pest or weed control at 0.16 g/ha,[1]; [14],0%
same,pest or weed control at 0.8 g/ha,"[4]; Tetranychus urticae, foliar, 144 h, active compound alone, 0.8 g/ha, after 6 d, read-out: Kill in % after 6 d",0%
same,Kill in % after 2d,"[6]; 0.8 g/ha, alone",33%
same,pest or weed control at 0.8 g/ha,[5]; [8],0%
